In ChEMBL document CHEMBL3397017, “Discovery of a new series of potent prostacyclin receptor agonists with in vivo activity in rat” (Bioorg Med Chem Lett, 2015) one finds EC50, Intrinsic activity and Stability data, which are given here for 28 compounds.

Data set [1] addresses T1, Prostacyclin receptor (Homo sapiens, UniProt P43119). Kind of data set: Agonist activity at human recombinant IP receptor expressed in CHO-K1 cells incubated for 1 hr by HTRF cAMP assay. It is filed as functional, cell-based. (In general: In TR-FRET formats the signal depends on donor and acceptor labels being close together.)
Data set [2] addresses T1, Prostacyclin receptor. Kind of data set: Intrinsic activity at human recombinant IP receptor expressed in CHO-K1 cells incubated for 1 hr by HTRF cAMP assay relative to 1 uM iloprost. It is filed as functional, cell-based.
Data set [3] has as its target Prostacyclin receptor (Rattus norvegicus, UniProt P43253). Kind of data set: Agonist activity at rat recombinant IP receptor expressed in CHO-K1 cells incubated for 1 hr by HTRF cAMP assay. It is filed as functional, cell-based.
The target of data set [4] is Prostacyclin receptor (Rattus norvegicus) (UniProt P43253). As to the kind of experiment: Intrinsic activity at rat recombinant IP receptor expressed in CHO-K1 cells incubated for 1 hr by HTRF cAMP assay relative to 1 uM iloprost. It is filed as functional, cell-based.
Chain of Prostacyclin receptor (Rattus norvegicus) (P43253 whole entry): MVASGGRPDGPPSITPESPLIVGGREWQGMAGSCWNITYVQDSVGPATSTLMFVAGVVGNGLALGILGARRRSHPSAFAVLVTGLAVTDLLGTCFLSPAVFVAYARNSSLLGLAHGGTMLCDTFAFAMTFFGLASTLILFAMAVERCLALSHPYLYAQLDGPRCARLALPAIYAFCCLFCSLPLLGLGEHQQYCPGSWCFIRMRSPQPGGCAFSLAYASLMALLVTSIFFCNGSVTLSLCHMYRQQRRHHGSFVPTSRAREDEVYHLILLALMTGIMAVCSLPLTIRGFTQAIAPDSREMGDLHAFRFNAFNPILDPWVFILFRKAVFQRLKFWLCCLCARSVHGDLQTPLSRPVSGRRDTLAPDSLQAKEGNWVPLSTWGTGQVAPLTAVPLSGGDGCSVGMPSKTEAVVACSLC
Data set [5] has as its target T2, Prostaglandin D2 receptor (Homo sapiens, UniProt Q13258).
T2 sequence (Q13258 whole entry): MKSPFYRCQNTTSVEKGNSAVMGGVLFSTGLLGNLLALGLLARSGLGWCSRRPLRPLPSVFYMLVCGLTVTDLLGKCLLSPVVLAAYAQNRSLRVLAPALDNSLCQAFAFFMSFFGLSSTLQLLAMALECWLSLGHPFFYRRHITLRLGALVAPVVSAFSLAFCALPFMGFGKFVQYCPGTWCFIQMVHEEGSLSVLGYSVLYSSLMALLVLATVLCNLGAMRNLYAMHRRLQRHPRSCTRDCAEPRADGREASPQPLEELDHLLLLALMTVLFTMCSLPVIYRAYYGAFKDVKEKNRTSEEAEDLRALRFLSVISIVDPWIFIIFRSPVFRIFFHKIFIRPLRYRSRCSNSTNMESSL
Kind of data set: Agonist activity at human recombinant DP1 receptor expressed in melanophores assessed as induction of pigment redistribution incubated for 90 mins.

For data set [6], the system named is Liver microsome. Kind of data set: Stability in rat liver microsomes. It is filed as ADME. (In general: Microsomes from liver hold many membrane-bound enzymes, among them those of drug oxidation.)
Data set [7] concerns Liver microsome. As to the kind of experiment: Stability in human liver microsomes. It is filed as ADME.

T1 sequence (P43119 whole entry): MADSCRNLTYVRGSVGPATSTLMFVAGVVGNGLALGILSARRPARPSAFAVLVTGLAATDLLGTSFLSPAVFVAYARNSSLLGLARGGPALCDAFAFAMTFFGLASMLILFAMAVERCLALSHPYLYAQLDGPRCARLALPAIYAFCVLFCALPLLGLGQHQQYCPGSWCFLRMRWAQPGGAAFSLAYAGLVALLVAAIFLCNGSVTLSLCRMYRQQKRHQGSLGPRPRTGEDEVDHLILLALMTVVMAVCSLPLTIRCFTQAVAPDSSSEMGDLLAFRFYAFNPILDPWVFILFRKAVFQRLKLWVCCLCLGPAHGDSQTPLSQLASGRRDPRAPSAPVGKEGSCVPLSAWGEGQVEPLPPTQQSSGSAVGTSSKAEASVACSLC
Chain of Prostacyclin receptor (Rattus norvegicus, UniProt P43253) (P43253 whole entry): as the sequence (P43253 whole entry) above

In general, EC50 refers to the concentration that produces a half-maximal response. In the case of `Cc1cccc(-c2cc(=O)n(CC3CCc4c(cccc4OCC(=O)O)C3)nc2-c2ccccc2)c1` (racemic), the EC50 in data set [1] turned out to be 0.18 µM; in data set [3], 0.37 µM; in data set [5], 0.025 µM. The Intrinsic activity stood at 97% in data set [2] and 72% in data set [4].

As for `COc1ccc(-c2c(-c3ccccc3)cnn(CC3CCc4c(cccc4OCC(=O)O)C3)c2=O)cc1` (racemic), the EC50 in data set [1] was 0.004 µM; in data set [3] it was 0.011 µM. Also, the Intrinsic activity in data set [2] came to 72%; in data set [4], 105%. In addition, the Stability result in data set [6] and in data set [7] was “Unstable” in each case.

Take `COc1cccc(-c2cnn(CC3CCc4c(cccc4OCC(=O)O)C3)c(=O)c2-c2ccccc2)c1F` (racemic): the values for the 50% effective concentration (EC50) in data set [1], in data set [3] and in data set [5] were 0.01 µM, 0.04 µM and 0.04 µM, respectively. Moreover, the Intrinsic activity in data set [2] came to 78%; in data set [4] it was 98%. In addition, the Stability result in data set [6] and in data set [7] was “Unstable” throughout.

`COc1cccc(-c2cnn(CC3CCc4c(cccc4OCC(=O)O)C3)c(=O)c2-c2ccccc2)c1` (racemic): the EC50 worked out at 0.14 µM in data set [1], 0.69 µM in data set [3] and 0.048 µM in data set [5]. The Intrinsic activity in data set [2] turned out to be 101%; in data set [4] it was 81%. In addition, the Stability result in data set [6] and in data set [7] was “Unstable” each time.

Consider `COc1cccc(-c2cc(=O)n(CC3CCc4c(cccc4OCC(=O)O)C3)nc2-c2ccccc2)c1F` (racemic), for which the values for the 50% effective concentration (EC50) in data set [1], in data set [3] and in data set [5] were 0.037 µM, 0.35 µM and 0.006 µM, respectively. Moreover, the Intrinsic activity in data set [2] was 97%; in data set [4], 85%. Further, the Stability result in data set [6] and in data set [7] was “Unstable” in each case.

For the compound `O=C(O)COc1cccc2c1CCC(Cn1ncc(-c3ccccc3)c(-c3cccc(F)c3)c1=O)C2` (racemic), the figures for the EC50 in data set [1] and in data set [3] were 0.26 µM and 0.79 µM, respectively. In addition, the values for the Intrinsic activity in data set [2] and in data set [4] were 100% and 121%, respectively.

On to `COc1ccc(-c2nn(CC3CCc4c(cccc4OCC(=O)O)C3)c(=O)cc2-c2ccccc2)cc1F` (racemic), for which the EC50 amounted to 0.01 µM in data set [1], 0.051 µM in data set [3] and 0.003 µM in data set [5]. Besides, the Intrinsic activity was 80% in data set [2] and 75% in data set [4]. In addition, the Stability result in data set [6] and in data set [7] was “Unstable” each time.

As for `O=C(O)COc1cccc2c1CCC(Cn1nc(-c3ccc(F)cc3)c(-c3ccccc3)cc1=O)C2` (racemic), the EC50 in data set [1] came to 0.114 µM; in data set [3], 1.5 µM. Further, the results for the Intrinsic activity in data set [2] and in data set [4] were 89% and 93%, respectively.

As to `COc1cccc(-c2cc(=O)n(CC3CCc4c(cccc4OCC(=O)O)C3)nc2-c2ccc(F)cc2)c1` (racemic), the figures for the EC50 in data set [1], in data set [3] and in data set [5] were 0.062 µM, 0.62 µM and 0.024 µM, respectively. In addition, the values for the Intrinsic activity in data set [2] and in data set [4] were 91% and 102%, respectively.

For the compound `COc1ccc(-c2nn(CC3CCc4c(cccc4OCC(=O)O)C3)c(=O)cc2-c2ccccc2)c(F)c1` (racemic), the EC50 in data set [1] was found to be 0.02 µM; in data set [3], 0.112 µM; in data set [5] it was 0.031 µM. The Intrinsic activity came to 78% in data set [2] and 76% in data set [4]. For the same compound, the Stability result in data set [6] and in data set [7] was “Unstable” in each case.

In the case of `COc1ccc(-c2c(-c3ccccc3)cnn(CC3CCc4c(cccc4OCC(=O)O)C3)c2=O)cc1F` (racemic), the concentration for a half-maximal effect (EC50) came out at 0.085 µM in data set [1] and 0.174 µM in data set [3]. Moreover, the Intrinsic activity in data set [2] worked out at 84%; in data set [4], 100%. The Stability entry in data set [6] and in data set [7] was “Unstable” each time.

For the compound `O=C(O)COc1cccc2c1CCC(Cn1nc(-c3ccccc3)c(-c3ccccc3)cc1=O)C2` (racemic), the results for the 50% effective concentration (EC50) in data set [1], in data set [3] and in data set [5] were 0.969 µM, 2.19 µM and 0.021 µM, respectively. For the same compound, the Intrinsic activity in data set [2] was determined as 60%; in data set [4], 70%.

Consider `O=C(O)COc1cccc2c1CCC(Cn1ncc(-c3ccccc3)c(-c3ccc(F)cc3)c1=O)C2` (racemic), for which the EC50 stood at 0.02 µM in data set [1] and 0.17 µM in data set [3]. The Intrinsic activity amounted to 80% in data set [2] and 104% in data set [4].

`O=C(O)COc1cccc2c1CCC(Cn1ncc(-c3ccccc3)c(-c3ccccc3)c1=O)C2` (racemic): the 50% effective concentration (EC50) in data set [1] came to 0.1 µM; in data set [3], 0.26 µM; in data set [5], 0.18 µM. Moreover, the figures for the Intrinsic activity in data set [2] and in data set [4] were 75% and 88%, respectively.

On to `COc1ccc(-c2nn(CC3CCc4c(cccc4OCC(=O)O)C3)c(=O)cc2-c2ccccc2)cc1` (racemic), for which the half-maximal effective concentration (EC50) came to 0.0085 µM in data set [1], 0.0125 µM in data set [3] and 0.0017 µM in data set [5]. The values for the Intrinsic activity in data set [2] and in data set [4] were 80% and 93%, respectively. Moreover, the Stability entry in data set [6] and in data set [7] was “Unstable” throughout.

Take `COc1ccc(-c2cnn(CC3CCc4c(cccc4OCC(=O)O)C3)c(=O)c2-c2ccccc2)cc1` (racemic): the values for the EC50 in data set [1] and in data set [3] were 1.06 µM and greater than 3 µM, respectively. For the same compound, the Intrinsic activity in data set [2] worked out at 73%. Also, the Stability result in data set [6] and in data set [7] was “Unstable” throughout.

For the compound `O=C(O)COc1cccc2c1CCC(Cn1nc(-c3ccccc3)c(-c3cccc(Cl)c3)cc1=O)C2` (racemic), the values for the EC50 in data set [1], in data set [3] and in data set [5] were 0.06 µM, 0.36 µM and 0.061 µM, respectively. For the same compound, the Intrinsic activity in data set [2] was determined as 77%; in data set [4], 62%.

In the case of `O=C(O)COc1cccc2c1CCC(Cn1ncc(-c3cccc(F)c3)c(-c3ccccc3)c1=O)C2` (racemic), the EC50 in data set [1] amounted to 0.06 µM; in data set [3], 0.41 µM; in data set [5], 0.088 µM. For the same compound, the Intrinsic activity turned out to be 82% in data set [2] and 103% in data set [4].

Regarding `O=C(O)COc1cccc2c1CCC(Cn1ncc(-c3ccccc3F)c(-c3ccccc3)c1=O)C2` (racemic), the EC50 in data set [1] was found to be 0.12 µM; in data set [3], 0.42 µM; in data set [5], 0.031 µM. For the same compound, the values for the Intrinsic activity in data set [2] and in data set [4] were 106% and 99%, respectively.

With `COc1cccc(-c2nn(CC3CCc4c(cccc4OCC(=O)O)C3)c(=O)cc2-c2ccccc2)c1` (racemic), the EC50 in data set [1] was 1.72 µM; in data set [3], greater than 10 µM. Further, in data set [2], the Intrinsic activity came to 87%. Further, the Stability entry in data set [6] and in data set [7] was “Unstable” each time.

Turning to `O=C(O)COc1cccc2c1CCC(Cn1ncc(-c3cccc(F)c3F)c(-c3ccc(F)cc3)c1=O)C2` (racemic), the EC50 stood at 0.033 µM in data set [1], 0.266 µM in data set [3] and 0.042 µM in data set [5]. Besides, the Intrinsic activity in data set [2] stood at 94%; in data set [4] it was 103%.

Turning to `O=C(O)COc1cccc2c1CCC(Cn1nc(-c3ccccc3)c(-c3cccc(F)c3)cc1=O)C2` (racemic), the values for the EC50 in data set [1], in data set [3] and in data set [5] were 0.38 µM, 0.9 µM and 0.044 µM, respectively. Also, the Intrinsic activity was determined as 63% in data set [2] and 97% in data set [4].

With `O=C(O)COc1cccc2c1CCC(Cn1ncc(-c3cccc(Cl)c3)c(-c3ccccc3)c1=O)C2` (racemic), the figures for the EC50 in data set [1] and in data set [3] were 0.086 µM and 0.26 µM, respectively. Besides, the figures for the Intrinsic activity in data set [2] and in data set [4] were 93% and 98%, respectively.

Turning to `O=C(O)COc1cccc2c1CCC(Cn1nc(-c3cccc(F)c3)c(-c3ccccc3)cc1=O)C2` (racemic), the EC50 amounted to 1.06 µM in data set [1] and 2.37 µM in data set [3]. The Intrinsic activity in data set [2] came out at 88%; in data set [4], 99%.

In the case of `COc1cccc(-c2cc(=O)n(CC3CCc4c(cccc4OCC(=O)O)C3)nc2-c2ccc(C)cc2)c1` (racemic), the EC50 in data set [1] was 0.0095 µM; in data set [3], 0.028 µM; in data set [5], 0.011 µM. For the same compound, the Intrinsic activity is 81% in data set [2] and 107% in data set [4].

Turning to `O=C(O)COc1cccc2c1CCC(Cn1ncc(-c3ccccc3)c(-c3ccccc3F)c1=O)C2` (racemic), the EC50 in data set [1] turned out to be 0.14 µM; in data set [3], 0.37 µM. The Intrinsic activity worked out at 91% in data set [2] and 116% in data set [4].

Regarding `COc1ccc(-c2cc(=O)n(CC3CCc4c(cccc4OCC(=O)O)C3)nc2-c2ccccc2)cc1` (racemic), the EC50 is 2.67 µM in data set [1] and greater than 10 µM in data set [3]. In data set [2], the Intrinsic activity came out at 47%. Moreover, the Stability entry in data set [6] and in data set [7] was “Unstable” throughout.

In the case of `Cc1ccc(-c2nn(CC3CCc4c(cccc4OCC(=O)O)C3)c(=O)cc2-c2ccccc2)cc1` (racemic), the results for the EC50 in data set [1] and in data set [3] were 0.024 µM and 0.12 µM, respectively. For the same compound, the figures for the Intrinsic activity in data set [2] and in data set [4] were 67% and 99%, respectively.
